The record followed here is PubChem BioAssay (NCI).

Several values for one entry are separate records, joined by “and”; a condition that tells them apart may be missing. Equal values may be shown once.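 Test compounds were applied to cells in 96-well plates for 48 hours at 5 doses. GI50: concentration for 50% inhibition of growth. TGI denotes the concentration required for complete inhibition of growth.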 Where only a bound is given, the exact number is not on record here.

Some test systems named below: DMS 273 small cell lung; DLD-1 colon; HOP-18 NSCLC; SNB-78 CNS; M19-MEL melanoma; XF 498 CNS; MCF7 breast; NCI/ADR-RES ovarian; PC-3 prostate; HS 578T breast.
What all share (test): NCI tumour cell line growth inhibition, 48 h

As for `CC(=O)NNc1nc(C)c(C(=O)NNC(=O)C(=O)Nc2ccc(C)c(C)c2)s1`, the TGI in the assay on DMS 273 small cell lung, in the assay on DLD-1 colon, with HOP-18 NSCLC, in the assay with SNB-78 CNS and with M19-MEL melanoma was > 100 µM in each case.

Take `O=C(CC(=O)N1N=C(n2ccc3ccccc32)CC1c1ccccc1)Nc1cccc(Cl)c1` (stereo not drawn): the TGI in the assay on DMS 273 small cell lung, in the assay on DLD-1 colon, in the assay with HOP-18 NSCLC, in the assay on SNB-78 CNS and with M19-MEL melanoma was > 100 µM throughout.

Turning to `CCSC1(SCC)CCN(C=NC(C)(C)C)C1`, the TGI in the assay on DMS 273 small cell lung, in the assay with DLD-1 colon, with HOP-18 NSCLC, in the assay with SNB-78 CNS, in the assay with M19-MEL melanoma and with XF 498 CNS was > 100 µM in each case.

For the compound `CC(=O)OC1C=CC2CCN3C(=O)c4cc5c(cc4[C@H]1C23)OCO5` (stereo partly drawn), the TGI in the assay on DMS 273 small cell lung, in the assay on DLD-1 colon, with SNB-78 CNS and in the assay on M19-MEL melanoma was > 100 µM each time.

Consider `COC(=O)CCC(NC(=S)N/N=C(\C)c1ccccn1)C(=O)OC` (stereo not drawn), for which the TGI with DLD-1 colon, with HOP-18 NSCLC, in the assay with M19-MEL melanoma and in the assay on XF 498 CNS was > 100 µM each time.

As to `COc1ccc(/C=C2/C(=O)N(C(=O)c3ccccc3O)N=C2C)cc1OC`, the TGI was > 100 µM in the assay with DLD-1 colon; 33.9 µM in the assay with MCF7 breast; > 100 µM in the assay with NCI/ADR-RES ovarian; > 100 µM in the assay with SNB-78 CNS; 65.4 µM in the assay on M19-MEL melanoma; > 100 µM in the assay on XF 498 CNS. Besides, the TGI in the assay with PC-3 prostate is > 100 µM.

For the compound `O=C(c1cc(=O)c2ccc(O)cc2o1)c1ccc(Cl)cc1Cl`, the TGI was > 31.6 µM with DMS 273 small cell lung; > 100 µM in the assay with DLD-1 colon; > 100 µM in the assay with HOP-18 NSCLC; > 100 µM in the assay on SNB-78 CNS; > 100 µM with M19-MEL melanoma; 62.6 µM in the assay with XF 498 CNS.

Regarding `Cc1ccc2nc3c(Cl)cc(=O)cc-3sc2c1`, the TGI in the assay with DMS 273 small cell lung was 39.3 µM; with SNB-78 CNS it was > 100 µM; with M19-MEL melanoma, 36 µM.

Turning to `O=C1C=C2S[C@H]3C[C@]2(C=C1Br)c1c(c(O)c2c4c1=NCCC=4C=N2)N3`, the TGI in the assay with DMS 273 small cell lung is 2.39 µM; in the assay on DLD-1 colon, 2.06 µM; with HOP-18 NSCLC, 3.23 µM; in the assay on NCI/ADR-RES ovarian, 0.457 µM; with SNB-78 CNS it was 3.79 µM; in the assay with HS 578T breast, 3.48 µM. Further, the values for the TGI in the assay with XF 498 CNS and in the assay on PC-3 prostate were 2.78 µM and 4.52 µM, respectively.

For `CCOC(=O)C1=C(Nc2ccccc2)OC/C1=N\NC(=O)Cc1ccccc1`, the TGI in the assay with DLD-1 colon, in the assay with HOP-18 NSCLC, in the assay with SNB-78 CNS, with M19-MEL melanoma and in the assay with XF 498 CNS was > 50 µM throughout.

For `CCOC(=O)CC(=O)ON(C)C(=O)Cc1ccccc1`, the TGI in the assay with DLD-1 colon, with SNB-78 CNS and in the assay on M19-MEL melanoma was > 100 µM each time.

`CCOc1ccccc1NC(=O)C(=O)CC(=O)C1=C(C)Nc2ccccc2S1`: the TGI in the assay on DMS 273 small cell lung, in the assay with DLD-1 colon, in the assay on SNB-78 CNS, in the assay with M19-MEL melanoma and in the assay on XF 498 CNS was > 100 µM throughout.

With `C=C1C(=O)OC2CCCCC3OC3C12` (stereo not drawn), the TGI in the assay on DMS 273 small cell lung turned out to be 23.8 µM; with DLD-1 colon, 23.4 µM; in the assay on HOP-18 NSCLC, 23.3 µM; in the assay with SNB-78 CNS, 56.5 µM; in the assay on M19-MEL melanoma, 35.1 µM; in the assay with XF 498 CNS, 24.7 µM.

As for `O=C(c1cc2ccccc2[nH]1)C(O)(c1cc2ccccc2[nH]1)c1cc2ccccc2[nH]1`, the TGI in the assay on DMS 273 small cell lung and in the assay with DLD-1 colon was > 246 µM in each case.

Regarding `OC(c1ccccc1)(c1ccccc1)c1ccccn1`, the TGI in the assay with DMS 273 small cell lung, with DLD-1 colon, in the assay on HOP-18 NSCLC, in the assay with SNB-78 CNS, in the assay with M19-MEL melanoma and with XF 498 CNS was > 100 µM throughout.

For `Cc1ccc(SSCCCS(=O)O)cc1`, the TGI was 79 µM with DMS 273 small cell lung; > 100 µM in the assay with DLD-1 colon; > 100 µM in the assay with HOP-18 NSCLC; > 100 µM in the assay on M19-MEL melanoma; > 100 µM in the assay on XF 498 CNS.

For the compound `COC(=O)[C@]12CC[C@@H](C)[C@H](C)[C@@H]1C1=CC[C@@H]3[C@@]4(C)C[C@@H](OC(=O)c5ccco5)[C@H](O)[C@@](C)(CO)[C@@H]4[C@H](O)C[C@@]3(C)[C@]1(C)CC2`, the GI50 is 1.8 µM in the assay with MCF7 breast, 2.59 µM with NCI/ADR-RES ovarian, 2.24 µM with HS 578T breast and 2.6 µM in the assay with PC-3 prostate. Besides, the TGI worked out at 3.71 µM in the assay with MCF7 breast, 7.12 µM with NCI/ADR-RES ovarian, 7.4 µM in the assay with HS 578T breast and 6.73 µM in the assay on PC-3 prostate.

As to `CCCNc1nc(N(C)O)nc(N(C)O)n1`, the GI50 is 2.44 µM in the assay on MCF7 breast, 2.15 µM with NCI/ADR-RES ovarian, 6.51 µM with HS 578T breast and 6.66 µM with PC-3 prostate. Moreover, the TGI in the assay on MCF7 breast, in the assay with NCI/ADR-RES ovarian, with HS 578T breast and in the assay on PC-3 prostate was > 100 µM throughout.

Turning to `N/C(=N\O)c1ncc(-c2ccc(C(F)(F)F)cc2)c(NC2CCCCCC2)n1`, the GI50 with MCF7 breast was 4.65 µM and 1.43 µM; with NCI/ADR-RES ovarian it was 4.41 µM and 0.593 µM; in the assay with HS 578T breast it was 5.67 µM; with PC-3 prostate, 5.34 µM and 1.92 µM. In addition, the TGI with MCF7 breast came out at 12.3 µM; in the assay on NCI/ADR-RES ovarian it was 13.4 µM; in the assay on HS 578T breast, 23.2 µM; in the assay on PC-3 prostate, 12.1 µM.

Turning to `C/C=C/C=N/N(c1nnc(-c2ccccc2)c(-c2ccccc2)n1)S(=O)(=O)c1ccc(C)cc1`, the TGI came out at 29.8 µM with DMS 273 small cell lung; 32.7 µM in the assay with DLD-1 colon; 27.4 µM in the assay on HOP-18 NSCLC; 83.2 µM with SNB-78 CNS; 36.3 µM in the assay on M19-MEL melanoma.

For `NC(=S)N/N=C(/CC(=O)c1ccc([N+](=O)[O-])cc1)C(=O)Nc1ncc([N+](=O)[O-])s1`, the TGI in the assay on DLD-1 colon, in the assay on SNB-78 CNS, in the assay on M19-MEL melanoma and in the assay on XF 498 CNS was > 100 µM throughout.
